Tests used:
KOR = tested on: KOR; parameters: method as in PMID 14718611; settings: [3H]bremazocine as radiolabeled ligand; cited from earlier work
human KOR = target: T1, human KOR (Homo sapiens, UniProt P41145); test: biochemical; settings: read-out: Emax ± SEM
T1 construct: expressed in transfected cells; host or cells: CHO cells expressing hKOR (membranes), according to the assay names of the earlier reading
T1 sequence (P41145 whole entry): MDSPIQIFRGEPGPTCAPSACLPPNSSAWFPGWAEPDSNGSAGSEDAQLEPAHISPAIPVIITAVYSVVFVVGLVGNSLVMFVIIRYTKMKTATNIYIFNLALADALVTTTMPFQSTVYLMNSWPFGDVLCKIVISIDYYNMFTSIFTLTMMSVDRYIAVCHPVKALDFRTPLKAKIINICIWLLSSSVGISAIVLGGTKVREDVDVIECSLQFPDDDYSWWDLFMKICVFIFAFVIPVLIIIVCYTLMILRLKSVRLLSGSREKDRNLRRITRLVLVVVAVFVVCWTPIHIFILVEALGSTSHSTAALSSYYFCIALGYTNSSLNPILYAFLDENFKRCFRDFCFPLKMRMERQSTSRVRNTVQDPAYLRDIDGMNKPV

SMILES	activity at the KOR (in words), early report (KOR)	Emax (human KOR) [%]
COC(=O)[C@@H]1C[C@H](O)C(=O)[C@H]2[C@@]1(C)CC[C@H]1C(=O)O[C@H](c3ccoc3)C[C@]21C [Compound 2a, salvinorin B]	inactive	
COC(=O)C1CC(O)C(=O)C2C1(C)CCC1C(=O)OC(c3ccoc3)CC12C (stereo not drawn) [Compound 2b, 8-epi-salvinorin B]		90 ± 2
